Measured values published in US8778304B2, “TSPO-targeting compounds and uses thereof” (The Johns Hopkins University, priority 2010, dated 2014).

Key:
[1] = molecular target: T1, TSPO (Homo sapiens, UniProt P30536); conditions: first human study; cited from earlier work
[2] = tested on: TSPO; conditions: cited from earlier work
[3] = molecular target: T1, TSPO; conditions: cited from earlier work
[4] = molecular target: T2, TSPO (Mus musculus, UniProt P50637); conditions: Sandhoff mice at 4 months of age; cited from earlier work
[5] = molecular target: T3, TSPO (Rattus norvegicus, UniProt P16257); test: In vitro autoradiography with [125I]1 on rat brain sections (neurotoxicant model of brain inflammation); type: binding
T3 construct: Fresh-frozen brains were sectioned (20 μm) on a freezing cryostat in the horizontal plane; from tissue; host or cells: rat brain sections (control and neurotoxicant-treated)
Protocol: Fresh-frozen brains were sectioned (20 μm) on a freezing cryostat in the horizontal plane. Brain sections were thaw-mounted onto poly-L-lysine-coated slides (Sigma) and stored at −20° C. until used. Autoradiography using [^125I]IodoDPA-713 ([^125I]1) was performed on adjacent brain sections using the following procedures. Slides were thawed and dried at 37° C. for 30 min and prewashed in 50 mM Tris-HCl buffer (pH 7.4) for 5 min at room temperature. Sections were then incubated in 1.4 nM [^125I]1 in 50 mM Tris-HCl buffer for 30 min at room temperature. For non-specific binding, adjacent sections were incubated in the presence of 10 μM racemic PK11195. The reaction was terminated by two 3 min washes in cold buffer (4° C.) and two dips in cold deionized water (4° C.). Sections were air-dried and apposed to Kodak Bio-Max MR film for 1 h. Images were acquired using the MCID image analysis software (InterFocus Imaging Ltd., Cambridge, England).
The first study involved a model of brain inflammation in which rats were exposed to a seizure-inducing neurotoxicant (FIG. 2). Note that higher levels of [^125I]1 were present in the neurotoxicant-treated rat brain (FIG. 2B) than in control brain (FIG. 2A). Exposure of the tissue specimens to [^125I]1 to generate these images required only 60 min, as opposed to 4-5 weeks often needed for tritium-labeled compounds when exposing the samples to film.

[6] = molecular target: T2, TSPO; test: [125I]-IodoDPA713 microSPECT/CT dynamic in vivo imaging of TSPO in Sandhoff disease mice; design: Fresh-frozen brains were sectioned (20 μm) on a freezing cryostat in the horizontal plane; from tissue; host or cells: mouse brain sections (fresh-frozen for A4, PLP-fixed for A5)
Protocol: (§1) An X-SPECT small-animal SPECT/CT system (Gamma Medica-Ideas) was used for image acquisition. Each mouse was anesthetized with isofluorane prior to imaging. About 1-2 mCi of [^125I]-IodoDPA713 was injected into each mouse via intravenous injection, and images were acquired immediately after injection. The SPECT projection data were acquired using 2 low-energy, high-resolution parallel-hole collimators with a radius of rotation of 4.65 cm (spatial resolution, 1.6 mm). The tomographic data were acquired in 64 projections over 360° at 20 s per projection. After tomography, CT was acquired in 512 projections to allow anatomic coregistration. Data were reconstructed using the ordered subsets-expectation maximization algorithm and analyzed using AMIDE software (free software provided by SourceForge). Data was analyzed using Analysis software, and time activity curve of the [^125I]-IodoDPA713 uptake was generated for each mouse. Three mice per genotype were scanned for the study. For the blocking study, non-radioactive IodoDPA713 (20 μM) was intravenously co-injected with [^125I]-IodoDPA713, and images were acquired immediately after [^125I] injection.

[7] = molecular target: T2, TSPO; test: SPECT-CT imaging of LPS-induced lung inflammation in mice; type: in vivo; conditions: for lung signal to background ratio: 1 h postinjection, lungs vs muscle
Protocol: Eight- to 10-week-old female CD-1 mice (Charles River Labs) were imaged. Mice were anesthetized by brief isoflurane sedation. While anesthetized, intranasal instillation was conducted by placing 10 μg/60 μL (167 μg/mL) of lipopolysaccharide (LPS) onto the nares (Szarka et al., “A murine model of pulmonary damage induced by lipopolysaccharide via intranasal instillation,” J. Immunol. Methods, vol. 202, pp. 49-57, 1997). The 60 μL sample was applied onto the nares as three 20 μL drops. Phosphate-buffered saline (PBS) was administered in a similar fashion and used as the control.
For single photon emission computed tomography-computed tomography (SPECT-CT) imaging 18.5 MBq (500 μCi) of [^125I]1 was injected via the tail vein into the LPS and PBS treated mice and imaged 1 h later, which corresponded to 24 h after the administration of LPS or PBS. That time point was chosen since it represents the time at which there is maximum inflammation in the lungs, as determined by a time course study with histologic correlation (data not shown). Each mouse was anesthetized with isoflurane and maintained under 1-2% isoflurane in oxygen. The mouse was positioned on the X-SPECT (Gamma Medica, Northridge, Calif.) gantry and was scanned using two opposing low energy pinhole collimators (Gamma Medica) rotating through 360° in 3° increments for 20 s per increment. Images were reconstructed using LumaGem software that accompanies the X-SPECT. Immediately following SPECT acquisition, the mice were scanned by CT over a 3-cm field-of-view using a 600-μA, 50 kV beam. […] Data were reconstructed using the ordered subsets-expectation maximization (OS-EM) algorithm. The signal to background ratio was calculated from the images by drawing regions of interest over the lungs (signal) and muscle, (background).

[8] = molecular target: T2, TSPO; test: Quantitative receptor autoradiography with [125I]-IodoDPA713 on Sandhoff mouse brain sections; type: binding; design: Fresh-frozen brains were sectioned (20 μm) on a freezing cryostat in the horizontal plane; from tissue; host or cells: mouse brain sections (fresh-frozen for A4, PLP-fixed for A5)
Protocol: Fresh-frozen brains were sectioned (20 μm) on a freezing cryostat in the horizontal plane. Brain sections were thaw-mounted onto poly-L-lysine-coated slides (Sigma-Aldrich, St. Louis, Mo.) and stored at −20° C. until used. [^125I]-IodoDPA713 autoradiography to measure TSPO levels were performed on adjacent brain sections using the same procedures. Slides were thawed and dried at 37° C. for 30 min and prewashed in 50 mM Tris-HCl buffer (pH 7.4) for 5 min at room temperature. Sections were then incubated in 0.5 nM [^125I]-IodoDPA713 in buffer for 30 min at room temperature. For non-specific binding, adjacent sections were incubated in the presence of […] racemic PK11195. The reaction was terminated by two 3-min washes in cold buffer (4° C.) and two dips in cold deionized water (4° C.). Sections incubated with [^125I]-IodoDPA713 were apposed to Kodak Bio-Max MR films with [^125I]-Microscales (GE Healthcare, Piscataway, N.J.) for 1 h. Images were acquired and quantified using the MCID software (InterFocus Imaging Ltd, Cambridge, England).

[9] = molecular target: T2, TSPO; test: [125I]-IodoDPA713 microSPECT/CT imaging of heart in coxsackievirus-induced myocarditis mice; type: in vivo
Protocol: as §1, with “treatment” for “genotype”, “study.” for “study. For the blocking study, non-radioactive IodoDPA713 (20 μM) was intravenously co-injected with [^125I]-IodoDPA713, and images were acquired immediately after [^125I] injection.”

T1 sequence (P30536 whole entry): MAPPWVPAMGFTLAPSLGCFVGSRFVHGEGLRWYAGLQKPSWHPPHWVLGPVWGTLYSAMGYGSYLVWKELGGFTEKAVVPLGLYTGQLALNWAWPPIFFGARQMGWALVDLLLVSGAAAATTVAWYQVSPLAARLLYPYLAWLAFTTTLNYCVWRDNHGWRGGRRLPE

CCN(CC)C(=O)Cc1c(-c2ccc(OC)cc2)nn2c(C)cc(C)nc12 [[^11C]DPA-713]
binding potential relative to [11C]PK11195 [1]: higher binding potential
brain uptake relative to [11C]-PK11195 ([2]; PET imaging): higher brain uptake
signal-to-noise ratios relative to [11C]PK11195 ([2]; rodent model of brain injury): higher signal-to-noise ratios

CCN(CC)C(=O)Cc1c(-c2ccc(OC)cc2)nn2c(C)cc(C)nc12 [DPA-713, N,N-diethyl-2-[2-(4-methoxy-phenyl)-5,7-dimethyl-pyrazolo[1,5-a]pyrimidin-3-yl]-acetamide]
affinity for TSPO relative to PK11195 [3]: nearly twice

CCC(C)N(C)C(=O)c1cc2ccccc2c(-c2ccccc2Cl)n1 (centres unmarked) [[^11C]PK11195]
brain uptake ([2]; in vivo): poor brain uptake
non-specific binding ([2]; in vivo): significant non-specific binding
PET uptake in Sandhoff mice compared to wildtype [4]: higher

CCN(CC)C(=O)Cc1c(-c2ccc(OC)c([125I])c2)nn2c(C)cc(C)nc12 [[^125I]1, N,N-Diethyl-2-[2-(3-[^125I]-iodo-4-methoxyphenyl)-5,7-dimethylpyrazolo[1,5-a]pyrimidin-3-yl]acetamide]
level of [125I]1 binding in neurotoxicant-treated rat brain versus control brain ([5]; 1.4 nM tracer, horizontal brain sections, FIG. 2A/2B): higher levels
blocking of [125I]1 uptake by PK11195 (specificity for TSPO) ([5]; neurotoxicant-treated rat, 10 μM PK11195, FIG. 2C): almost completely blocked
tracer uptake (SUV) in thalamus, Sandhoff versus wildtype ([6]; 2 months, p=0.0484): statistically significant increase
tracer uptake (SUV) in brainstem, Sandhoff versus wildtype ([6]; 3 months, p=0.0172): statistically significant increase
tracer uptake with blocker versus without blocker ([6]; Sandhoff mouse, co-injected nonradioactive IodoDPA713 (20 μM)): reduced uptake
tracer uptake (SUV) in thalamus, cerebellum and brainstem, Sandhoff versus wildtype ([6]; quantitative analysis, FIG. 8K): trend of increased uptake
tracer uptake in thalamus, Sandhoff versus wildtype (time-activity curve) ([6]; thalamus, FIG. 8J): consistently had higher uptake
lung signal to background ratio ([7]; LPS treated mouse): 21.2
uptake in inflamed mouse lungs relative to normal lungs ([7]; SPECT-CT, FIG. 3): 1.5 fold
lung signal to background ratio ([7]; control mouse): 14.6
binding in cerebellum, Sandhoff versus wildtype ([8]; 2 months, did not reach statistical significance, p=0.098): modest increase
binding to TSPO in thalamus, Sandhoff versus wildtype ([8]; 2 months, p=0.0007): significant increases
binding to TSPO in brainstem, Sandhoff versus wildtype ([8]; 2 months, p=0.0011): significant increases
binding in hippocampus, Sandhoff versus wildtype ([8]; 2 months, p=0.63): no significant increase
binding in cerebral cortex, Sandhoff versus wildtype ([8]; 2 months, p=0.98): no significant increase
binding in thalamus, Sandhoff versus wildtype ([8]; 3 months, p<0.0001): increased TSPO binding
binding in brainstem, Sandhoff versus wildtype ([8]; 3 months, p=0.0016): increased TSPO binding
binding in cerebral cortex, Sandhoff versus wildtype ([8]; 3 months, p=0.0037): increased binding
binding in cerebellum, Sandhoff versus wildtype ([8]; 3 months, p=0.0151): increased binding
binding in hippocampus, Sandhoff versus wildtype ([8]; 3 months, p=0.5912): no increased TSPO binding
organ specificity of increased uptake (lungs and liver also analyzed) ([9]; coxsackievirus-injected mice): heart-specific
tracer uptake (SUV) in heart, coxsackievirus-injected versus PBS-injected control mice ([9]; n=3, p<0.05, FIG. 15): statistically significant increase
